The values below come from patent US5028607A, “Bis(aryl)alkene compounds” (Adir et Compagnie, priority 1989, dated 1991).

Counter-ions that a name gives are not always drawn. Like-named read-outs stand apart in the source and are kept apart here.

In test [1] the target is T1, 5-HT2 (Rattus norvegicus, UniProt P14842).
T1 construct: from tissue; host or cells: whole anesthetized male Sprague-Dawley rat; vasculature (blood pressure response)
The experiment in a line: 5-HT2 antagonism (inhibition of 5-hydroxytryptamine hypertensive response, anesthetized rats). The settings on record: iv, cumulative doses, 5-hydroxytryptamine 100 μg/kg i.v., rats pretreated with d-tubocurarine and prazosin, read-out: ID50, dose inhibiting the hypertensive response by 50%. The format is in vivo, rats (male Sprague-Dawley). On the procedure: Male Sprague-Dawley rats (350-400 g) are anesthetized i.p. with pentobarbital (45 mg/kg). The trachea is cannulated and the animals are subjected to artificial respiration. The vagus nerves are sectioned. A catheter is placed in a carotid artery to record the arterial blood pressure. A second catheter is placed in the vein of the penis and is used for the injections. The animals' temperature is taken and is maintained at 37° C. The rats are pretreated with d-tubocurarine (1 mg/kg i.v.) and prazosin (1 mg/kg i.v.). 5-Hydroxytryptamine is injected i.v. at a dose of 100 μg/kg twice, separated by an interval of 10 minutes, so as to determine the rise in the systolic arterial blood pressure of each rat. 10 minutes later, the compounds of the invention are injected at the lowest dose and injection of 5-hydroxytryptamine is performed again 10 minutes later. 3 or 4 cumulative doses of the compounds of the invention are tested in the same manner. The percentages of the hypertensive response which are obtained at the different doses are calculated in order to determine the ID50, the dose inhibiting the hypertensive response by 50%.

In test [2] the test system is α1. The test is described as follows: α1 antagonism (inhibition of phenylephrine hypertensive response, pithed rats). In kind it is in vivo, rats (male Sprague-Dawley). The settings on record: cumulative doses, phenylephrine 4 g/kg i.v., Tertatolol 100 μg/kg i.v. pretreatment. The text has this: α1 antagonism Male Sprague-Dawley rats (300-400 g) which have been subjected to a water diet are anesthetized with ethyl ether. A cannula is placed in the trachea. The spinal cord is destroyed by means of a steel rod and artificial respiration is instituted at once. The vagus nerves are sectioned. The carotid arteries are ligated and a catheter is placed in one of them to record the arterial blood pressure. A second catheter is placed in the vein of the penis and is used for the injections. The animals' temperature is taken and is maintained at 36° C. The rats are pretreated with a β-blocker (Tertatolol 100 μg/kg i.v.). Phenylephrine is injected at a dose of […] i.v. Two identical injections are performed, separated by an interval of 10 minutes. The compounds of the invention are injected at the lowest dose and injection of phenylephrine is performed again 10 minutes later. 3 or 4 cumulative doses of the compounds of the invention are tested in the same manner. The values for the percentage inhibition of the hypertensive response which are obtained at the different doses are calculated in order to determine the ID50.

The test system of test [3] is 5-hydroxytryptophan. The experiment in a line: 5-HTP antagonism (symptoms induced by 5-hydroxytryptophan). The format is in vivo, rats (female Wistar). The settings on record: Rattus norvegicus. On the procedure: The animals are then placed under observation in transparent cages. Three parameters are assessed in the study: "forepaw treading", "flat body posture" and "head twitches". "Forepaw treading" corresponds to a pedaling motion of the forelimbs. This parameter is measured 80 minutes after the administration of […] and during a 10-minute observation period. […] This parameter is assessed throughout the period of observation of the animals.

[4] abbreviates: sc, 80 min, compounds subcutaneously, 5-hydroxytryptophan 320 mg/kg by gavage, scored at 80 minutes, read-out: ED50 FPT (forepaw treading).
[5] abbreviates: sc, compounds subcutaneously, 5-hydroxytryptophan 320 mg/kg by gavage, read-out: ED50 FBP (flat body posture).
[6] abbreviates: po, 80 min, compounds orally, 5-hydroxytryptophan 320 mg/kg by gavage, scored at 80 minutes, read-out: ED50 FPT (forepaw treading).
Where [7] appears, read: po, 1.5 h, read-out: ED50 HT (head twitches).
Where [8] appears, read: po, compounds orally, 5-hydroxytryptophan 320 mg/kg by gavage, read-out: ED50 FBP (flat body posture).
Setting [9] is: sc, 1.5 h, read-out: ED50 HT (head twitches).
Where [10] appears, read: ip, 80 min, compounds intraperitoneally, 5-hydroxytryptophan 320 mg/kg by gavage, scored at 80 minutes, read-out: ED50 FPT (forepaw treading).
Where [11] appears, read: ip, 1.5 h, read-out: ED50 HT (head twitches).
[12] abbreviates: ip, compounds intraperitoneally, 5-hydroxytryptophan 320 mg/kg by gavage, read-out: ED50 FBP (flat body posture).

T1 sequence (P14842 whole entry): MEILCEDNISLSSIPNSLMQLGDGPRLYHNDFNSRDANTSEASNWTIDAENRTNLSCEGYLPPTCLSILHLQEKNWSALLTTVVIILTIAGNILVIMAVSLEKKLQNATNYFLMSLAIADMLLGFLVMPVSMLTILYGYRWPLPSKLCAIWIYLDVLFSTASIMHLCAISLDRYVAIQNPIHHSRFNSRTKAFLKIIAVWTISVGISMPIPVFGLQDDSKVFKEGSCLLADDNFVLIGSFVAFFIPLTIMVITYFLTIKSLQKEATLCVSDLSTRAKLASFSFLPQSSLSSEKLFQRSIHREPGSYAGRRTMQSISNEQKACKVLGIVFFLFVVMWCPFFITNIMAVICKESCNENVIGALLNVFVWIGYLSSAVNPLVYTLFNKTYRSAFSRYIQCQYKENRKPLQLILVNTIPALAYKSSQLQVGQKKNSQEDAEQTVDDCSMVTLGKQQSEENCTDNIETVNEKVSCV

In the case of `Cc1ccc(C(=C2CCN(CCc3c(C)nc4c(C(N)=O)ncn4c3O)CC2)c2ccccc2)cc1.Cl` [EXAMPLE 13, 8-Carbamoyl-4-hydroxy-3-{2-[4-[(4-methylphenyl)-phenylmethylene]piperidino]ethyl}-2-methylimidazo[1,5-a]-pyrimidine hydrochloride], in test [1], the ED50 came out at 0.027 mg/kg. Also, the “ID50, inhibition of the hypertensive response to phenylephrine” value (“ID50, inhibition” below) in test [2] came out at 3.05 mg/kg.

As to `Cc1nc2c(C(N)=O)ncn2c(O)c1CCCN1CCC(=C(c2ccccc2)c2ccc(F)cc2)CC1.Cl` [EXAMPLE 9, 8-Carbamoyl-3-{3-[4-[(4-fluorophenyl)phenylmethylene]piperidino]propyl}-4-hydroxy-2-methylimidazo[1,5-a]-pyrimidine hydrochloride], the “ID50, inhibition” value in test [2] was over 5 mg/kg.

With `O=c1[nH]c2ccccc2c(=O)n1CCN1CCCC(=C(c2ccc(F)cc2)c2ccc(F)cc2)CC1` [EXAMPLE 25, 3-{2-[4-[Bis(4-fluorophenyllmethylene]perhydroazepin-1-yl]ethyl}-2,4-dioxo-1,2,3,4-tetrahydrocuinazoline hydrochloride], in test [2], the “ID50, inhibition” value was found to be 3.05 mg/kg.

In the case of `Cc1nc2c(C(N)=O)ncn2c(O)c1CCN1CCC(=C(c2ccccc2)c2ccc(F)cc2)CC1.Cl` [EXAMPLE 3, 8-Carbamoyl-3-{2-[4-[(4-fluorophenyl)phenylmethylene]piperidino]ethyl}-4-hydroxy-2-methylimidazo[1,5-a]-pyrimidine hydrochloride], the ED50 in test [1] came to 0.024 mg/kg; in test [3] (setting [4]), 10 mg/kg; in test [3] (setting [5]), 10 mg/kg. Moreover, the “ID50, inhibition” value in test [2] was over 5 mg/kg.

Regarding `Cc1nc2c(C#N)ncn2c(O)c1CCN1CCC(=C(c2ccc(F)cc2)c2ccc(F)cc2)CC1` [EXAMPLE 11, 3-{2-[4-Bis(4-fluorophenyl)methylene]piperidino]ethyl}-8-cyano-4-hydroxy-2-methylimidazo[1,5-a]-pyrimidine hydrochloride], the “ID50, inhibition” value in test [2] is over 5 mg/kg. The results for the ED50 in test [3] (setting [6]), in test [3] (setting [7]) and in test [3] (setting [8]) were 5 mg/kg, 10 mg/kg and 1.25 mg/kg, respectively.

For `O=C1CN(Cc2ccccc2F)CC(=O)N1CCCN1CCC(=C2c3ccccc3-c3ccccc32)CC1` [EXAMPLE 6, 1-{3-[4-(9-Fluorenylidenyl)piperidino]propyl}-4-(2-fluorobenzyl)-2,6-piperazinedione hydrochloride], the ED50 in test [1] stood at 0.039 mg/kg; in test [3] (setting [6]), 5 mg/kg; in test [3] (setting [8]) it was 2.5 mg/kg.

Consider `O=C1CN(Cc2ccccn2)CC(=O)N1CCCN1CCC(=C(c2ccccc2)c2ccc(F)cc2)CC1` [EXAMPLE 10, 1-{3-4-(4-Fluorophenyl)phenylmethylene]piperidino]propyl}-4-(2-pyridylmethyl)-2,6-piperazinedione dihydrochloride], for which the ED50 is 0.0082 mg/kg in test [1], 1.25 mg/kg in test [3] (setting [4]), 40 mg/kg in test [3] (setting [9]) and 0.16 mg/kg in test [3] (setting [5]).

As to `Cc1nc2c(C(N)=O)ncn2c(O)c1CCN1CCC(C=C(c2ccc(F)cc2)c2ccc(F)cc2)C1` (centres unmarked) [EXAMPLE 24, 3-(3-4-2,2-Bis(4-fluorophenyl)vinyl]pyrrolidino]ethyl}-8-carbamoyl-4-hydroxy-2-methylimidazo[1,5-a]-pyrimidine hydrochloride], the “ID50, inhibition” value in test [2] was over 5 mg/kg.

For `O=C1CN(Cc2ccccc2F)CC(=O)N1CCCN1CCC(C=C(c2ccc(F)cc2)c2ccc(F)cc2)C1` (centres unmarked) [EXAMPLE 8, 1-{3-[3-[2,2-bis(4-fluorophenyl)vinylene]-1-pyrrolidinyl]propyl}-4-(2-fluorobenzyl)-2,6-piperazinedione dihydrochloride], in test [2], the “ID50, inhibition” value was determined as 5.3 mg/kg.

With `Cc1nc2c(C#N)ncn2c(O)c1CCN1CCC(=C(c2ccccc2)c2ccc(F)cc2)CC1.Cl` [EXAMPLE 4, 8-Cyano-3-{2-[4-[(4-fluorophenyl)phenylmethylene]piperidino]ethyl}-4-hydroxy-2-methylimidazo[1,5-a]-pyrimidine hydrochloride], in test [2], the “ID50, inhibition” value was over 5 mg/kg. The ED50 came out at 1.25 mg/kg in test [3] (setting [6]), 10 mg/kg in test [3] (setting [7]) and 1.25 mg/kg in test [3] (setting [8]).

On to `Cc1nc2c(C(N)=O)ncn2c(O)c1CCN1CCC(=C(c2ccc(F)cc2)c2ccc(F)cc2)CC1.Cl` [EXAMPLE 1, 3-{2-[4-[bis(4-fluorophenyl)methylene]piperidino]ethyl}-8-carbamoyl-4-hydroxy-2-methylimidazo [1,5-a]pyrimidine hydrochloride], for which the ED50 in test [1] is 0.013 mg/kg; in test [3] (setting [10]), 2.5 mg/kg; in test [3] (setting [11]), 0.63 mg/kg; in test [3] (setting [12]), 0.08 mg/kg; in test [3] (setting [6]), 10 mg/kg; in test [3] (setting [7]), over 10 mg/kg. The ED50 in test [3] (setting [8]) was 0.16 mg/kg. In addition, in test [2], the “ID50, inhibition” value is over 5 mg/kg.

For `Cl.O=C1CN(Cc2ccccc2F)CC(=O)N1CCCN1CCC(=C(c2ccccc2)c2ccc(F)cc2)CC1` [EXAMPLE 5, 4-(2-Fluorobenzyl)-1-{3-[4-[(4-fluorophenyl)phenylmethylene]piperidino]propyl}-2,6-piperazinedione hydrochloride], the ED50 in test [1] was found to be 0.034 mg/kg.

Consider `Cc1nc2c(C(N)=O)ncn2c(O)c1CCN1CCCC(C=C(c2ccc(F)cc2)c2ccc(F)cc2)C1` (centres unmarked) [EXAMPLE 23, 3-{2-[3-[2,2-Bis(4-fluorophenyl)vinylene]piperidino]ethyl}-8-carbamoyl-4-hydroxy-2-methylimidazo[1,5-a]-pyrimidinehydrochloride], for which, in test [2], the “ID50, inhibition” value is over 5 mg/kg.

Turning to `Fc1ccc(C(=C2CCN(CCCN3CCN(c4ncccn4)CC3)CC2)c2ccc(F)cc2)cc1` [EXAMPLE 7, 1-{3-[4-Bis(4-fluorophenyl)methylene]piperidino]propyl}-4-(2-pyrimidinyl)piperazine dihydrochloride], the ED50 is 5 mg/kg in test [3] (setting [4]), over 10 mg/kg in test [3] (setting [9]) and 5 mg/kg in test [3] (setting [5]).

In the case of `Cl.Cl.O=C1CN2Cc3ccccc3CC2C(=O)N1CCN1CCC(=C(c2ccccc2)c2ccc(F)cc2)CC1` (centres unmarked) [EXAMPLE 2, 2-{2-[4-[(4-Fluorophenyl)phenylmethylene]piperidino]ethyl}-1,3,4,6,11,11a-hexahydro-1,3-dioxo-2H-pyrazino[1,2-b]-isoquinoline dihydrochloride], the ED50 amounted to 1.25 mg/kg in test [3] (setting [10]), 5 mg/kg in test [3] (setting [11]) and 1.25 mg/kg in test [3] (setting [12]).
